Test results as given in patent publication US7205382B2, “Peptides, the production and use thereof for binding immunoglobulins” (Fresenius Medical Care Affina GmbH, priority 2000, dated 2007).
Bridge positions count the residues as written; N and C are the ends. Square brackets hold non-standard residues; d marks the D form. Ends that are not written are not given here. cellulose = not defined here; βAla = NCCC(=O)O

Experiments:
Assay type in all cases: binding
Design in all cases: key: No binding of immunoglobulin for the defined peptide variant, detection negative: 0; Binding of immunoglobulin for the defined peptide variant, detection positive: +
[1] = system: serum albumin; assay: Cellulose-immobilized 13-mer peptide variants incubated with serum albumin (negative control), anti-human IgG-AP detection; settings: blocking buffer without addition, 3 h room temperature
How it was run: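 Membrane-bound peptides, spaced by two β-alanines, are probed with 1 μg/ml IgG-Fc or 1:10,000 serum for 3 h at room temperature; blocking buffer alone acts as control. Detection uses anti-human IgG-AP (1.2 μg/ml) and NBT/BCIP.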

[2] = system: immunoglobulins in human plasma; assay: Cellulose-immobilized 13-mer peptide variants incubated with human plasma, anti-human IgG-AP detection; settings: human plasma as sample, diluted 1:10,000 in blocking buffer, 3 h room temperature
How it was run: (§1)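 Binding is scored by NBT/BCIP precipitate from an AP-conjugated anti-human IgG probe on membrane-synthesized peptides. Targets are applied for 3 h at room temperature in 4% BSA/5% saccharose block: IgG-Fc at 1 μg/ml, serum at 1:10,000.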

[3] = system: human IgG-Fc; assay: Cellulose-immobilized 13-mer peptide variants incubated with human IgG-Fc, anti-human IgG-AP detection; settings: IgG-Fc 1 μg/ml in blocking buffer, 3 h room temperature
How it was run: as §1

Row | Substance | Result for incubation with serum albumin (immunoglobulin binding detection) [1] | Result for incubation with human plasma (immunoglobulin binding detection) [2] | Result for incubation with human IgG-Fc (immunoglobulin binding detection) [3]
1 | 04L: cellulose-bound 13-mer variant DCALHLGELVWCT-(βA)(βA) (DCALHLGELVWCT[βAla][βAla]; disulfide 2-12 (inferred); also: cellulose-bound) | 0 | 0 | +
2 | 04N: cellulose-bound 13-mer variant DCANHLGELVWCT-(βA)(βA) (DCANHLGELVWCT[βAla][βAla]; disulfide 2-12 (inferred); also: cellulose-bound) | 0 | 0 | +
3 | 08S: cellulose-bound 13-mer variant DCAWHLGSLVWCT-(βA)(βA) (DCAWHLGSLVWCT-{βAla-βAla-cellulose}; disulfide 2-12 (inferred); reading uncertain; also: printed as DCAWHLGSLVWCT-(βA)(βA)) | 0 | 0 | +
4 | 10S: cellulose-bound 13-mer variant DCAWHLGELSWCT-(βA)(βA) (DCAWHLGELSWCT-{βAla-βAla-cellulose}; disulfide 2-12 (inferred); reading uncertain; also: printed as DCAWHLGELSWCT-(βA)(βA)) | 0 | 0 | 0
5 | 11G: cellulose-bound 13-mer variant DCAWHLGELVGCT-(βA)(βA) | 0 | 0 | 0
6 | 03I: cellulose-bound 13-mer variant DCIWHLGELVWCT-(βA)(βA) (DCIWHLGELVWCT-{βAla-βAla-cellulose}; disulfide 2-12 (inferred); reading uncertain; also: printed as DCIWHLGELVWCT-(βA)(βA)) | 0 | 0 | 0
7 | 06C: cellulose-bound 13-mer variant DCAWHCGELVWCT-(βA)(βA) (DCAWHCGELVWCT[βAla][βAla]; not fully specified (N-terminus); printed as DCAWHCGELVWCT-(βA)(βA); cysteine pairing not given here; also: cellulose-bound) | 0 | 0 | 0
8 | 09E: cellulose-bound 13-mer variant DCAWHLGEEVWCT-(βA)(βA) (DCAWHLGEEVWCT-{βAla-βAla-cellulose}; disulfide 2-12 (inferred); reading uncertain; also: printed as DCAWHLGEEVWCT-(βA)(βA)) | 0 | 0 | 0
9 | 08W: cellulose-bound 13-mer variant DCAWHLGWLVWCT-(βA)(βA) (DCAWHLGWLVWCT-{βAla-βAla-cellulose}; disulfide 2-12 (inferred); reading uncertain; also: printed as DCAWHLGWLVWCT-(βA)(βA)) | 0 | 0 | 0
10 | 10K: cellulose-bound 13-mer variant DCAWHLGELKWCT-(βA)(βA) (DCAWHLGELKWCT-{βAla-βAla-cellulose}; disulfide 2-12 (inferred); reading uncertain; also: printed as DCAWHLGELKWCT-(βA)(βA)) | 0 | 0 | 0

Results, then the substance that gave them:

Row | Result for incubation with serum albumin (immunoglobulin binding detection) [1] | Result for incubation with human plasma (immunoglobulin binding detection) [2] | Result for incubation with human IgG-Fc (immunoglobulin binding detection) [3] | Substance
11 | 0 | 0 | 0 | 06F: cellulose-bound 13-mer variant DCAWHFGELVWCT-(βA)(βA) (DCAWHFGELVWCT[βAla][βAla]; disulfide 2-12 (inferred); not fully specified (N-terminus); printed as DCAWHFGELVWCT-(βA)(βA); also: cellulose-bound)
12 | 0 | + | + | 08H: cellulose-bound 13-mer variant DCAWHLGHLVWCT-(βA)(βA) (DCAWHLGHLVWCT-{βAla-βAla-cellulose}; disulfide 2-12 (inferred); not fully specified (N-terminus); printed as DCAWHLGHLVWCT-(βA)(βA); reading uncertain)
13 | 0 | + | + | 01E: cellulose-bound 13-mer variant ECAWHLGELVWCT-(βA)(βA) (ECAWHLGELVWCT-{βAla-βAla-cellulose}; disulfide 2-12 (inferred); reading uncertain; also: printed as ECAWHLGELVWCT-(βA)(βA))
14 | 0 | 0 | 0 | 07V: cellulose-bound 13-mer variant DCAWHLVELVWCT-(βA)(βA) (DCAWHLVELVWCT-{βAla-βAla-cellulose}; disulfide 2-12 (inferred); not fully specified (N-terminus); printed as DCAWHLVELVWCT-(βA)(βA); reading uncertain)
15 | 0 | 0 | 0 | 10E: cellulose-bound 13-mer variant DCAWHLGELEWCT-(βA)(βA) (DCAWHLGELEWCT-{βAla-βAla-cellulose}; disulfide 2-12 (inferred); reading uncertain; also: printed as DCAWHLGELEWCT-(βA)(βA))
16 | 0 | 0 | 0 | 12F: cellulose-bound 13-mer variant DCAWHLGELVWFT-(βA)(βA) (DCAWHLGELVWFT-{βAla-βAla-cellulose}; not fully specified; printed as DCAWHLGELVWFT-(βA)(βA); reading uncertain)
17 | 0 | 0 | 0 | 03W: cellulose-bound 13-mer variant DCWWHLGELVWCT-(βA)(βA) (DCWWHLGELVWCT-{βAla-βAla-cellulose}; disulfide 2-12 (inferred); reading uncertain; also: printed as DCWWHLGELVWCT-(βA)(βA))
